EP4722207A1, “OXOISOINDOLINYL-SUBSTITUTED TETRAHYDROPYRIMIDINEDIONE DERIVATIVE AND USE THEREOF” (Gluetacs Therapeutics (Shanghai) Co., Ltd., priority 2023, dated 2024)

Legend:
CK1α = target: T1, CK1α (Homo sapiens, UniProt P48729+Q96SW2); assay: Western-blot assay, substrate protein degradation in hPBMCs: CK1α; assay type: cell-based; conditions: for CK1α substrate protein remaining %: compounds at 50 nM and 500 nM, 24 hours; for substrate protein remaining % CK1α: 24 hours of compound treatment, 50 nM and 500 nM
T1 construct: effects of the compounds of the present disclosure on the expression of target proteins in cells; endogenous in cells; host or cells: human PBMCs (hPBMCs)
T1 sequence (P48729 whole entry): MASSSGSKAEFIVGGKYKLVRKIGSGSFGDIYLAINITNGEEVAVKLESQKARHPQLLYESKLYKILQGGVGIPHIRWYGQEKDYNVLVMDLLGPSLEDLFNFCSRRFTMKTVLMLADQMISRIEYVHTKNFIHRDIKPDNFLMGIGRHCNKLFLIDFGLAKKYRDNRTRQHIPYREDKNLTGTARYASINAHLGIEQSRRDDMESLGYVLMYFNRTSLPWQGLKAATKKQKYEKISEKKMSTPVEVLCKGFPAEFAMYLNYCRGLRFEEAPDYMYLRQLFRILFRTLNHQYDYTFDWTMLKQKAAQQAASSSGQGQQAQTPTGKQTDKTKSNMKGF
T1 sequence (Q96SW2 whole entry): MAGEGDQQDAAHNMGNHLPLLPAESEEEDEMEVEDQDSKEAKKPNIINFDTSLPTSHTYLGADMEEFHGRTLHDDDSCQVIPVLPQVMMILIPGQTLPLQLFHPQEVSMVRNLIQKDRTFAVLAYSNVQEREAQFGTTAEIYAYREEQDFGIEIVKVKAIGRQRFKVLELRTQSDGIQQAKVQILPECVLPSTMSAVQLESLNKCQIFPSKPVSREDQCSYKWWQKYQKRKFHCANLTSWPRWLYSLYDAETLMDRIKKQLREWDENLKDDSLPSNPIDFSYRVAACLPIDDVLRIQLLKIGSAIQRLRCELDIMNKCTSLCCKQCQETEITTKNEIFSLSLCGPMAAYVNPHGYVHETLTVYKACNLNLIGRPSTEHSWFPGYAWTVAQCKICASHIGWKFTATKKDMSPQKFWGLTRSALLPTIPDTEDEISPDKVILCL
T1 sequence (Q16531 whole entry partner): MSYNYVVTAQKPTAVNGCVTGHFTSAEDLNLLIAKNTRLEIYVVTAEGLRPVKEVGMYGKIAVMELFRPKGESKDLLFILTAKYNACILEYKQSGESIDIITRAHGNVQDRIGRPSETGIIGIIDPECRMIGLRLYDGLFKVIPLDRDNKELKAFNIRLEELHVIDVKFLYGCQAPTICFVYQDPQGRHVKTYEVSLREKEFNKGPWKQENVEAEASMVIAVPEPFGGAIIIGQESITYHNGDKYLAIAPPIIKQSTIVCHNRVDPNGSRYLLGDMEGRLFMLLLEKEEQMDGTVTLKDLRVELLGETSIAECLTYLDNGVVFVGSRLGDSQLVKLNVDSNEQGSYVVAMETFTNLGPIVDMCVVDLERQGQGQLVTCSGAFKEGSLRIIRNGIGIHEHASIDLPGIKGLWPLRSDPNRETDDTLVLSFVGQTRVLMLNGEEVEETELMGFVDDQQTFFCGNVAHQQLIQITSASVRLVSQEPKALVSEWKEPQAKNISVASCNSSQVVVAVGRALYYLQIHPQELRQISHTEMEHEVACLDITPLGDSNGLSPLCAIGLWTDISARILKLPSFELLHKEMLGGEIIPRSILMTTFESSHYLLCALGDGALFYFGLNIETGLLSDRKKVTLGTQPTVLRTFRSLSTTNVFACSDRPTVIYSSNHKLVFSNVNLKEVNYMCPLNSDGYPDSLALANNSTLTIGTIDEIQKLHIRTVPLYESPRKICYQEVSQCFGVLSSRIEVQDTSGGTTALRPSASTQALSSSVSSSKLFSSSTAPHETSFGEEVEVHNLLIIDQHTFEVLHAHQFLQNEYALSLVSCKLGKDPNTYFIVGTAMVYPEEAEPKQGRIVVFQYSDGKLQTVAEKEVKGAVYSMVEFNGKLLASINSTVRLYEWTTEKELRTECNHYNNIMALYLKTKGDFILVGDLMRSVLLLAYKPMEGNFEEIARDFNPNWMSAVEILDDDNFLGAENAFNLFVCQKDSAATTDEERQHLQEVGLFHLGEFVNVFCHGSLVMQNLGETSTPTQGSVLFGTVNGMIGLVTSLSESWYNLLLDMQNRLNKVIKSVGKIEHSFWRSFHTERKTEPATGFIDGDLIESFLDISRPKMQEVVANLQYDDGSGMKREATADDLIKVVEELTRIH

WEE1 = target: T2, WEE1 (Homo sapiens, UniProt P30291+Q96SW2); assay: Western-blot assay, substrate protein degradation in hPBMCs: WEE1; assay type: cell-based; conditions: for WEE1 substrate protein remaining %: compounds at 50 nM and 500 nM, 24 hours; for substrate protein remaining % WEE1: 24 hours of compound treatment, 50 nM and 500 nM
T2 construct: effects of the compounds of the present disclosure on the expression of target proteins in cells; endogenous in cells; host or cells: human PBMCs (hPBMCs)
T2 sequence (P30291 whole entry): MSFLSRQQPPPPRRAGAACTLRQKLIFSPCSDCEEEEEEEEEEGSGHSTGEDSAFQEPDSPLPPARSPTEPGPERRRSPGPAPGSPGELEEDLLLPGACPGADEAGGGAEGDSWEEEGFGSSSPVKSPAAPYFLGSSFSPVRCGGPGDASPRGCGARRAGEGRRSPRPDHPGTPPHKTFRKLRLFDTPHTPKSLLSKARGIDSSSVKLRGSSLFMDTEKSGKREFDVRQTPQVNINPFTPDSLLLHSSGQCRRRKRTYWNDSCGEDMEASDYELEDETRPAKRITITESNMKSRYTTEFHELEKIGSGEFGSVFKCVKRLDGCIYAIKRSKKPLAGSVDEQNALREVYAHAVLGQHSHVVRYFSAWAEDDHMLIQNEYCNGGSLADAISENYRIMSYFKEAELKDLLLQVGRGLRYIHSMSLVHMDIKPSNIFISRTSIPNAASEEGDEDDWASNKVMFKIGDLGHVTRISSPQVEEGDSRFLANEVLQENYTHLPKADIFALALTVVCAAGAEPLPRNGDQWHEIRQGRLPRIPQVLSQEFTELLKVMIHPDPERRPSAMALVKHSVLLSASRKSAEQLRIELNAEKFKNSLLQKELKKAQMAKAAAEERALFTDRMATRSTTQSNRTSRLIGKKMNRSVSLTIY
T2 sequence (Q96SW2 whole entry): as the sequence (Q96SW2 whole entry) above
T2 sequence (Q16531 whole entry partner): as the sequence (Q16531 whole entry partner) above

IKZF3 = target: T3, IKZF3 (Homo sapiens, UniProt Q96SW2+Q9UKT9); assay: Western-blot assay, substrate protein degradation in hPBMCs: IKZF3; assay type: cell-based; conditions: for IKZF3 substrate protein remaining %: compounds at 50 nM and 500 nM, 24 hours; for substrate protein remaining % IKZF3: 24 hours of compound treatment, 50 nM and 500 nM
T3 construct: effects of the compounds of the present disclosure on the expression of target proteins in cells; endogenous in cells; host or cells: human PBMCs (hPBMCs)
T3 sequence (Q9UKT9 whole entry): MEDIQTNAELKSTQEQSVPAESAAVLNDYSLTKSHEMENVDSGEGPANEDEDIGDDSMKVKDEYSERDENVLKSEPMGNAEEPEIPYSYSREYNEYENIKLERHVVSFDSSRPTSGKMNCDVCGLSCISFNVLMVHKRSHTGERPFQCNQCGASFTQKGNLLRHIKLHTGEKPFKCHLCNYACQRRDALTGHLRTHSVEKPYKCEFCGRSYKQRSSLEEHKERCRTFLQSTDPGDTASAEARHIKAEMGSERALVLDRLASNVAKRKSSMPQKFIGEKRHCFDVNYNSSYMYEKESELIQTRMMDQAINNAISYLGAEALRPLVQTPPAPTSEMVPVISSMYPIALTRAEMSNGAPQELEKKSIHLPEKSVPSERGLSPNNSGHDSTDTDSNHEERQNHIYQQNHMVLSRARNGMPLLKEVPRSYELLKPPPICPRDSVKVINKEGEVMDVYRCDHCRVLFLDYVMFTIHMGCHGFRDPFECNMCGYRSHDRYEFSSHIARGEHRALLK
T3 sequence (Q96SW2 whole entry): as the sequence (Q96SW2 whole entry) above
T3 sequence (Q16531 whole entry partner): as the sequence (Q16531 whole entry partner) above

GSPT1 = target: T4, GSPT1 (Homo sapiens, UniProt P15170+Q96SW2); assay: Western-blot assay, substrate protein degradation in hPBMCs: GSPT1; assay type: cell-based; conditions: for GSPT1 substrate protein remaining %: compounds at 50 nM and 500 nM, 24 hours; for substrate protein remaining % GSPT1: 24 hours of compound treatment, 50 nM and 500 nM
T4 construct: effects of the compounds of the present disclosure on the expression of target proteins in cells; endogenous in cells; host or cells: human PBMCs (hPBMCs)
T4 sequence (P15170 whole entry): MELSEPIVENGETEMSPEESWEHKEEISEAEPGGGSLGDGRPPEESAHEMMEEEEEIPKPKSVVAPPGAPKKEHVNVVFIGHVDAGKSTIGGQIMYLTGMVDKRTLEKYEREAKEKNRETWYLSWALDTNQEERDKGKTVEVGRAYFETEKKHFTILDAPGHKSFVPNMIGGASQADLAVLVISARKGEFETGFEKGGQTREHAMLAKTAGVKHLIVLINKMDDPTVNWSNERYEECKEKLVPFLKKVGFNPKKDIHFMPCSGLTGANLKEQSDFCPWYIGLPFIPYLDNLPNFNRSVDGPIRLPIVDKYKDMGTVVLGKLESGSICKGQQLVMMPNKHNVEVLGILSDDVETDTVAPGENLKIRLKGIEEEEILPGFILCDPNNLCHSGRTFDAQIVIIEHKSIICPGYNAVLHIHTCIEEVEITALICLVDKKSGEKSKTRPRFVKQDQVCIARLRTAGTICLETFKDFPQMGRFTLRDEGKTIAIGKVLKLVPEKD
T4 sequence (Q96SW2 whole entry): as the sequence (Q96SW2 whole entry) above
T4 sequence (Q16531 whole entry partner): as the sequence (Q16531 whole entry partner) above

IKZF1 = target: T5, IKZF1 (Homo sapiens, UniProt Q13422+Q96SW2); assay: Western-blot assay, substrate protein degradation in hPBMCs: IKZF1; assay type: cell-based; conditions: for IKZF1 substrate protein remaining %: compounds at 50 nM and 500 nM, 24 hours; for substrate protein remaining % IKZF1: 24 hours of compound treatment, 50 nM and 500 nM
T5 construct: effects of the compounds of the present disclosure on the expression of target proteins in cells; endogenous in cells; host or cells: human PBMCs (hPBMCs)
T5 sequence (Q13422 whole entry): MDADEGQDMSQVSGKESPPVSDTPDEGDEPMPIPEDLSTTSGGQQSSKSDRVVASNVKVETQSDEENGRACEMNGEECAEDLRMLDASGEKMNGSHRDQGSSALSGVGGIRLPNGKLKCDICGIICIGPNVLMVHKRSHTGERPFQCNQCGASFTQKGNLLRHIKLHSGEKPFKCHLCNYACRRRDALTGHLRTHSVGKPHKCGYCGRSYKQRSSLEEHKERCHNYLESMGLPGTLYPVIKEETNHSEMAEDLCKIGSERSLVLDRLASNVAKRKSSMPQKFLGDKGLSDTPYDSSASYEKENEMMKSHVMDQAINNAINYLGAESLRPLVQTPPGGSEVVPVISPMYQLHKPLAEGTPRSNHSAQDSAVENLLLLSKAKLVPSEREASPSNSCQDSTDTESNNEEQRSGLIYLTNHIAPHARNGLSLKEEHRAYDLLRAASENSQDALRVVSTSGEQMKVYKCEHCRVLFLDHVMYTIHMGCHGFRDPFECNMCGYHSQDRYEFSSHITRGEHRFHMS
T5 sequence (Q96SW2 whole entry): as the sequence (Q96SW2 whole entry) above
T5 sequence (Q16531 whole entry partner): as the sequence (Q16531 whole entry partner) above

IKZF2 = target: T6, IKZF2 (Homo sapiens, UniProt Q96SW2+Q9UKS7); assay: Western-blot assay, substrate protein degradation in hPBMCs: IKZF2; assay type: cell-based; conditions: for IKZF2 substrate protein remaining %: compounds at 50 nM and 500 nM, 24 hours; for substrate protein remaining % IKZF2: 24 hours of compound treatment, 50 nM and 500 nM
T6 construct: effects of the compounds of the present disclosure on the expression of target proteins in cells; endogenous in cells; host or cells: human PBMCs (hPBMCs)

[1] = target: T7, human Cereblon WT GST-tagged protein (Homo sapiens, UniProt Q96SW2); assay: CRBN-binding affinity, CEREBLON BINDING kit (HTRF); conditions: 3 hours at room temperature
T7 construct: purchased CISBIO 64BDCRBNPEH
T7 sequence (Q96SW2 whole entry): as the sequence (Q96SW2 whole entry) above
Source text: The CEREBLON BINDING kits (specification: 10,000 tests; product number: Catalog # 64BDCRBNPEH; CISBIO company) was used to determine the CRBN binding ability of the compounds to be tested through a HTRF method (homogeneous time-resolved fluorescence). The specific methods are as follows: • 1. […] Specifically, diluent #9 (1X) solution was used as the diluent, and multiple concentration gradients were set. […] Into the 96-well plate, the diluted test compounds and corresponding detection reagents were added, resulting in final test compound concentrations of 2 µM and 0.5 µM, respectively. […] Then, 2.5 µL of human Cereblon WT GST-tagged protein solution was added to each well. Finally, 5 µL of the thoroughly mixed Thalidomide-Re reagent and GST Eu antibody working solution were added to each of the aforementioned wells. […] The blank control wells were sequentially added with 2.5 µL of diluent #9 (1X) solution, 2.5 µL of binding buffer, and 5 µL of thoroughly mixed Thalidomide-Re reagent and GST Eu antibody working solution. • 4. […] OD 620 nm control is the absorbance value of the blank control well at an emission wavelength of 620 nm. […] OD 620 nm Std0 is the absorbance value of the solvent control well at an emission wavelength of 620 nm.

MM.1S = assay: Cell viability assay (CellTiter-Meiluncell Luminescent), tumor cell proliferation, MM.1S; conditions: Homo sapiens, MM1.S, 96 h, read-out: inhibitory activity (IC50, nM) against tumor cells proliferation, MM.1S
Procedure: The tumor cells used herein were cultured in a cell culture medium listed in table 2 at 37°C in an incubator with 5% CO2. Prior to experimentation, all cell lines used were correctly identified by STR profiling, and tested negative for mycoplasma contamination using a mycoplasma detection kit through routine screenings.
On the following day, the test compounds of the present disclosure were subjected to serial dilution. […] Subsequently, 0.5 µL of the test compound dilution was transferred into the 96-well plate containing the cells, with each well containing 100 µL of cell culture medium. […] Into the 96-well plate, the diluted test compounds and corresponding detection reagents were added, resulting in final test compound concentrations of 500 nM and 10 nM, respectively. The experimental procedure is described below using the diluted 2 µM test compound as an example.
After the cells were treated with the compounds of the present disclosure for a specified period, the cell viability assay reagent was added to the culture medium according to the kit's instructions to determine cell viability. […] All controls were treated using the same procedure as the compounds of the present disclosure. The growth inhibition curves for the compounds of the present disclosure were plotted using Prism GraphPad software, and the IC50 values were calculated therefrom.

Jurkat = assay: Cell viability assay (CellTiter-Meiluncell Luminescent), tumor cell proliferation, Jurkat; conditions: Homo sapiens, 96 h, read-out: inhibitory activity (IC50, nM) against tumor cells proliferation, Jurkat

IC50 [1] [nM] | IC50 (MM.1S) [nM] | IC50 (Jurkat) [nM] | Structure (SMILES) | CK1α substrate protein remaining % (CK1α) | WEE1 substrate protein remaining % (WEE1) | IKZF3 substrate protein remaining % (IKZF3) | GSPT1 substrate protein remaining % (GSPT1) | IKZF1 substrate protein remaining % (IKZF1) | IKZF2 substrate protein remaining % (IKZF2) | substrate protein remaining % CK1α (CK1α) | substrate protein remaining % WEE1 (WEE1) | substrate protein remaining % IKZF3 (IKZF3) | substrate protein remaining % GSPT1 (GSPT1) | substrate protein remaining % IKZF1 (IKZF1) | substrate protein remaining % IKZF2 (IKZF2)
1000 to 1500 | – | – | O=C1CCN(N2Cc3cc(CN4CCN(c5cccs5)CC4)ccc3C2=O)C(=O)N1 [GT-05073, 1-(1-oxo-5-((4-(thiophen-2-yl)piperazin-1-yl)methyl)isoindolin-2-yl)dihydropyrimidine-2,4(1H,3H)-dione] | B ("B" is defined as 80%< substrate protein remaining %≤ 100%) | B ("B" is defined as 80%< substrate protein remaining %≤ 100%) | A ("A" is defined as 0% ≤ substrate protein remaining % ≤ 80%) | B ("B" is defined as 80%< substrate protein remaining %≤ 100%) | B ("B" is defined as 80%< substrate protein remaining %≤ 100%) | B ("B" is defined as 80%< substrate protein remaining %≤ 100%) | – | – | – | – | – | –
1500 to 1900 | – | – | O=C1CCN(N2Cc3cc(CN4CC5CCC4CN5C(c4ccccc4)c4ccccc4)ccc3C2=O)C(=O)N1 (centres unmarked) [GT-06450, 1-(5-((5-benzhydryl-2,5-diazabicyclo[2.2.2]octan-2-yl)methyl)-1-oxoisoindolin-2-yl)dihydropyrimidine-2,4(1H,3H)-dione] | B ("B" is defined as 80%< substrate protein remaining %≤ 100%) | A ("A" is defined as 0% ≤ substrate protein remaining % ≤ 80%) | A ("A" is defined as 0% ≤ substrate protein remaining % ≤ 80%) | A ("A" is defined as 0% ≤ substrate protein remaining % ≤ 80%) | B ("B" is defined as 80%< substrate protein remaining %≤ 100%) | A ("A" is defined as 0% ≤ substrate protein remaining % ≤ 80%) | – | – | – | – | – | –
– | 100 to 300 | 100 to 300 | O=C1CCN(N2Cc3cc(CN4CCN(C(c5cccc(F)c5)c5cccc(F)c5)CC4)ccc3C2=O)C(=O)N1 [GT-07293, 1-(5-((4-(bis(3-fluorophenyl)methyl)piperazin-1-yl)methyl)-1-oxoisoindolin-2-yl)dihydropyrimidine-2,4(1H,3H)-dione] | B ("B" is defined as 80%< substrate protein remaining %≤ 100%) | A ("A" is defined as 0% ≤ substrate protein remaining % ≤ 80%) | A ("A" is defined as 0% ≤ substrate protein remaining % ≤ 80%) | A ("A" is defined as 0% ≤ substrate protein remaining % ≤ 80%) | B ("B" is defined as 80%< substrate protein remaining %≤ 100%) | A ("A" is defined as 0% ≤ substrate protein remaining % ≤ 80%) | – | – | – | – | – | –
– | 500 to 1000 | 500 to 1000 | O=C1CCN(N2Cc3cc(CN4CCC(c5cccs5)CC4)ccc3C2=O)C(=O)N1 [GT-07511, 1-(1-oxo-5-((4-(thiophen-2-yl)piperidin-1-yl)methyl)isoindolin-2-yl)dihydropyrimidine-2,4(1H,3H)-dione] | – | – | – | – | – | – | A (0% ≤ substrate protein remaining % ≤ 80%) | A (0% ≤ substrate protein remaining % ≤ 80%) | B (80%< substrate protein remaining %≤ 100%) | A (0% ≤ substrate protein remaining % ≤ 80%) | A (0% ≤ substrate protein remaining % ≤ 80%) | A (0% ≤ substrate protein remaining % ≤ 80%)
1500 to 1900 | – | – | O=C1CCN(N2Cc3cc(CN4CC=C(c5c[nH]c6cc(F)ccc56)CC4)ccc3C2=O)C(=O)N1 [GT-07574, 1-(5-((4-(6-fluoro-1H-indol-3-yl)-3,6-dihydropyridin-1(2H)-yl)methyl)-1-oxoisoindolin-2-yl)dihydropyrimidine-2,4(1H,3H)-dione] | – | – | – | – | – | – | A (0% ≤ substrate protein remaining % ≤ 80%) | A (0% ≤ substrate protein remaining % ≤ 80%) | B (80%< substrate protein remaining %≤ 100%) | A (0% ≤ substrate protein remaining % ≤ 80%) | B (80%< substrate protein remaining %≤ 100%) | A (0% ≤ substrate protein remaining % ≤ 80%)
– | 50 to 100 | 50 to 100 | O=C1CCN(N2Cc3cc(CN4CC=C(c5n[nH]c6cc(F)ccc56)CC4)ccc3C2=O)C(=O)N1 [GT-07578, 1-(5-((4-(6-fluoro-1H-indazol-3-yl)-3,6-dihydropyridin-1(2H)-yl)methyl)-1-oxoisoindolin-2-yl)dihydropyrimidine-2,4(1H,3H)-dione] | – | – | – | – | – | – | B (80%< substrate protein remaining %≤ 100%) | A (0% ≤ substrate protein remaining % ≤ 80%) | B (80%< substrate protein remaining %≤ 100%) | A (0% ≤ substrate protein remaining % ≤ 80%) | A (0% ≤ substrate protein remaining % ≤ 80%) | A (0% ≤ substrate protein remaining % ≤ 80%)
– | 10 to 50 | 50 to 100 | O=C1CCN(N2Cc3cc(CN4CC=C(c5cccc6c(F)cccc56)CC4)ccc3C2=O)C(=O)N1 [GT-07590, 1-(5-((4-(5-fluoronaphthalen-1-yl)-3,6-dihydropyridin-1(2H)-yl)methyl)-1-oxoisoindolin-2-yl)dihydropyrimidine-2,4(1H,3H)-dione] | – | – | – | – | – | – | B (80%< substrate protein remaining %≤ 100%) | A (0% ≤ substrate protein remaining % ≤ 80%) | A (0% ≤ substrate protein remaining % ≤ 80%) | A (0% ≤ substrate protein remaining % ≤ 80%) | A (0% ≤ substrate protein remaining % ≤ 80%) | A (0% ≤ substrate protein remaining % ≤ 80%)

Structure (SMILES) | IC50 [1] [nM] | IC50 (MM.1S) [nM] | IC50 (Jurkat) [nM] | CK1α substrate protein remaining % (CK1α) | WEE1 substrate protein remaining % (WEE1) | IKZF3 substrate protein remaining % (IKZF3) | GSPT1 substrate protein remaining % (GSPT1) | IKZF1 substrate protein remaining % (IKZF1) | IKZF2 substrate protein remaining % (IKZF2) | substrate protein remaining % CK1α (CK1α) | substrate protein remaining % WEE1 (WEE1) | substrate protein remaining % IKZF3 (IKZF3) | substrate protein remaining % GSPT1 (GSPT1) | substrate protein remaining % IKZF1 (IKZF1) | substrate protein remaining % IKZF2 (IKZF2)
O=C1CCN(N2Cc3cc(CN4CC=C(c5ccnc(Cl)c5Cl)CC4)ccc3C2=O)C(=O)N1 [GT-07432, 1-(5-((2',3'-dichloro-3,6-dihydro-[4,4'-bipyridin]-1(2H)-yl)methyl)-1-oxoisoindolin-2-yl)dihydropyrimidine-2,4(1H,3H)-dione] | – | 300 to 500 | 500 to 1000 | – | – | – | – | – | – | A (0% ≤ substrate protein remaining % ≤ 80%) | A (0% ≤ substrate protein remaining % ≤ 80%) | A (0% ≤ substrate protein remaining % ≤ 80%) | A (0% ≤ substrate protein remaining % ≤ 80%) | A (0% ≤ substrate protein remaining % ≤ 80%) | A (0% ≤ substrate protein remaining % ≤ 80%)
Cn1cc(C2CCN(Cc3ccc4c(c3)CN(N3CCC(=O)NC3=O)C4=O)CC2)c2ccc(F)cc21 [GT-07575, 1-(5-((4-(6-fluoro-1-methyl-1H-indol-3-yl)piperidin-1-yl)methyl)-1-oxoisoindolin-2-yl)dihydropyrimidine-2,4(1H,3H)-dione] | – | 100 to 300 | 100 to 300 | – | – | – | – | – | – | A (0% ≤ substrate protein remaining % ≤ 80%) | A (0% ≤ substrate protein remaining % ≤ 80%) | A (0% ≤ substrate protein remaining % ≤ 80%) | A (0% ≤ substrate protein remaining % ≤ 80%) | A (0% ≤ substrate protein remaining % ≤ 80%) | A (0% ≤ substrate protein remaining % ≤ 80%)
O=C1CCN(N2Cc3cc(CN4CC=C(c5c[nH]c6ncccc56)CC4)ccc3C2=O)C(=O)N1 [GT-07577, 1-(5-((4-(1H-pyrrolo[2,3-b]pyridin-3-yl)-3,6-dihydropyridin-1(2H)-yl)methyl)-1-oxoisoindolin-2-yl)dihydropyrimidine-2,4(1H,3H)-dione] | – | 300 to 500 | 500 to 1000 | – | – | – | – | – | – | A (0% ≤ substrate protein remaining % ≤ 80%) | A (0% ≤ substrate protein remaining % ≤ 80%) | A (0% ≤ substrate protein remaining % ≤ 80%) | A (0% ≤ substrate protein remaining % ≤ 80%) | A (0% ≤ substrate protein remaining % ≤ 80%) | B (80%< substrate protein remaining %≤ 100%)
